Experimental data reported in PMC7067850, “Identification of highly potent and selective inhibitor, TIPTP, of the p22phox-Rubicon axis as a therapeutic agent for rheumatoid arthritis” (Scientific Reports, 2020).

How the values were obtained:
[1] = Microsomal stability assay (human liver microsomes); type: in vitro ADME
Method: To human liver microsomes (0.5 mg/mL) were added 0.1 M phosphate buffer (pH 7.4) and tested compounds (1 μM). After incubation at 37 °C for 5 min, NADPH generation system solution was added and incubated at 37 °C for 30 min. To terminate reaction, acetonitrile including internal standard (chloprapamide) was added, and the solution was centrifuged for 5 min (14,000 rpm, 4 °C). The supernatant was then injected into the LC-MS/MS system to analyze the microsomal stability of the tested compound.

CYP1A2 = molecular target: T1, CYP1A2 (Homo sapiens, UniProt P05177); experiment: CYP450 inhibition assay in human liver microsomes; type: in vitro ADME
T1 construct: To human liver microsomes (0.25 mg/mL); from tissue; host or cells: human liver microsomes
T1 sequence (P05177 1-516): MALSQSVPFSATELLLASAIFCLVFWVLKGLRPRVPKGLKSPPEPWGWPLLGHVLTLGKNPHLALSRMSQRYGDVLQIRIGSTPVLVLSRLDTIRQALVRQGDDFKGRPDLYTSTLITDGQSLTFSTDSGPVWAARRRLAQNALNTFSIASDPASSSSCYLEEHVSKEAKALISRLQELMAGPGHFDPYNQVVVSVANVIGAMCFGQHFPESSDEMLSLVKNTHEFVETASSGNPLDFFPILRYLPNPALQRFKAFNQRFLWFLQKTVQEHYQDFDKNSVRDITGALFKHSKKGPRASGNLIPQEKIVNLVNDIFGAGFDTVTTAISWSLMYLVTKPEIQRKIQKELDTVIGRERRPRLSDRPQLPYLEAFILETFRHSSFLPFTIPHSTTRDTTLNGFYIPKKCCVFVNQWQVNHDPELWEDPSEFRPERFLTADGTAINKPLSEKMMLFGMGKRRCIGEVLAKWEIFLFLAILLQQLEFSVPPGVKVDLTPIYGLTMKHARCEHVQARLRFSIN
Method: (§1) All of CYP inhibition, microsomal stability and plasma stability experiments were performed by New Drug Development Center, the Daegu-Gyeongbuk Medical Innovation Foundation (DGMIF), South Korea. To human liver microsomes (0.25 mg/mL), 0.1 M phosphate buffer (pH 7.4), a cocktail of five probe substrates (Phenacetin 50 μM, Diclofenac 10 μM, S-mephenytoin 100 μM, Dextromethorphan 5 μM, and Midazolam 2.5 μM), and tested compounds were added at concentrations of 0 μM (as a control) and 10 μM. After incubation at 37 °C for 5 min, NADPH generation system solution was also added and incubated at 37 °C for 15 min again. To terminate the reaction, acetonitrile including internal standard (Terfenadine) was added, and the solution was centrifuged for 5 min (14 000 rpm, 4 °C). The supernatant was then injected into the LC-MS/MS system to simultaneously analyze the metabolites of the probe substrates and evaluate the % CYP inhibition of the tested compound.

CYP2D6 = molecular target: T2, CYP2D6 (Homo sapiens, UniProt P10635); experiment: CYP450 inhibition assay in human liver microsomes; type: in vitro ADME
T2 construct: To human liver microsomes (0.25 mg/mL); from tissue; host or cells: human liver microsomes
T2 sequence (P10635 whole entry): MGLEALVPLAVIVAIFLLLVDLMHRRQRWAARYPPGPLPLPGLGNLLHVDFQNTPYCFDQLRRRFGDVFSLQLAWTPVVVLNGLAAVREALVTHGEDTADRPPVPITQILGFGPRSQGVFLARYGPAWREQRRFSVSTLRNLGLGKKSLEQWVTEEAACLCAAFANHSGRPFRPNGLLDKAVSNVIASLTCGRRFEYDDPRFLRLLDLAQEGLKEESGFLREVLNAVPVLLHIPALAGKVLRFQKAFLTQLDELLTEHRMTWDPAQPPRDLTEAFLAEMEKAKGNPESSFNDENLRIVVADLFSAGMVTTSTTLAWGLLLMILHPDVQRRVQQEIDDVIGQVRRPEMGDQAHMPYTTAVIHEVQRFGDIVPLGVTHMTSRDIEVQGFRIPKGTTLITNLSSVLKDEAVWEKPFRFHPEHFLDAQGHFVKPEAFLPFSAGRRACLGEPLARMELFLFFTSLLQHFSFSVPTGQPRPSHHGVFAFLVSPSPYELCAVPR
Method: as §1

CYP3A4 = molecular target: T3, CYP3A4 (Homo sapiens, UniProt P08684); experiment: CYP450 inhibition assay in human liver microsomes; type: in vitro ADME
T3 construct: To human liver microsomes (0.25 mg/mL); from tissue; host or cells: human liver microsomes
T3 sequence (P08684 whole entry): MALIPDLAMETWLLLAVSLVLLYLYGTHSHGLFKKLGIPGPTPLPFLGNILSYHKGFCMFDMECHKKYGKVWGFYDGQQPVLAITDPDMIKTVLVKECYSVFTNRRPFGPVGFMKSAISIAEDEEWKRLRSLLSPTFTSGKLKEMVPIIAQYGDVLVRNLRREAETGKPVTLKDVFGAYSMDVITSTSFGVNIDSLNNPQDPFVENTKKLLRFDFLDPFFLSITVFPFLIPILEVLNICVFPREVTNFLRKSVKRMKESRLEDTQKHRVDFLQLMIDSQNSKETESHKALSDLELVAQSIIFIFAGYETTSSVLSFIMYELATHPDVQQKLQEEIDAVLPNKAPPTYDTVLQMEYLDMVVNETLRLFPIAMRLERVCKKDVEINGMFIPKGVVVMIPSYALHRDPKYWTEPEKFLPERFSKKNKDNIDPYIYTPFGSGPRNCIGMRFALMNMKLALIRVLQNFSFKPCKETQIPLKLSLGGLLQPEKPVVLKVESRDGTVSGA
Method: as §1

human monocytes = experiment: LPS-primed, ATP-activated human monocytes (co-IP, ELISA, immunoblot); type: cell-based
Method: The mouse macrophage cell line RAW264.7 (ATCC TIB-71; American Type Culture Collection) and HEK293T (ATCC-11268) cells were maintained in DMEM (Invitrogen) containing 10% FBS (Invitrogen), sodium pyruvate, nonessential amino acids, penicillin G (100 IU/ml), and streptomycin (100 μg/ml). Transient transfections were performed with Lipofectamine 3000 (Invitrogen), or calcium phosphate (Clontech), according to the manufacturer’s instructions. Raw264.7 stable cell lines were generated using a standard selection protocol with 2 μg/ml of puromycin. Mouse primary bone marrow derived-macrophages (BMDMs) were isolated from C57BL/6 mice and cultured in DMEM for 3–5 days in the presence of 25 ng/ml recombinant macrophage colony stimulating factor (R&D Systems, 416-ML, Minneapolis, MN, USA), as described previously. Human adherent monocytes were prepared from PBMCs donated by healthy subjects, as described previously. […]
Cell culture supernatants, mice sera and synovial fluid were analyzed for cytokine content using the BD OptEIA ELISA set (BD Pharmingen) for the detection of TNF-α, IL-6, IL-1β, and IL-18. […]
Figure 6 TIPTP is active for cells from healthy humans or patients with RA. […] (b) Culture supernatants were harvested and analyzed for cytokines by ELISA (left). […] (e) Culture supernatants were harvested and analyzed for cytokines by ELISA (left). […]

For `C[C@@H](Oc1cccc(-n2cc3c(n2)CCCC3)c1)C(=O)Nc1nnc(C(F)(F)F)s1` [TIPTP, (R)-2-(3-(4,5,6,7-tetrahydro-2H-indazol-2-yl)phenoxy)-N-(5-(trifluoromethyl)-1,3,4-thiadiazol-2-yl)propanamide], the “metabolism in human hepatic microsomes” value ([1]; in words) was “easily metabolized”, the remaining at 0.5 h, 1 μM ([1]; pH 7.4, human liver microsomes 0.5 mg/mL, 1 μM, 30 min, read-out: Human liver microsomal stability (% remaining after 30 min)) was 4.4% and the “CYP (% of control activity @ 10 μM) 1A2” value (CYP1A2) was 45.7%. The “CYP (% of control activity @ 10 μM) 2D6” value (CYP2D6; 10 μM) was 98.2%, the “effect on the CYP2D6 isozyme” value (CYP2D6; in words) was “negligible” and the “CYP (% of control activity @ 10 μM) 3A4” value (CYP3A4) was 76.6%. The “IL-1β and IL-18 cytokines, caspase-1 activation, IL-1β and IL-18 maturation” value (human monocytes; human blood-derived monocytes, LPS/ATP, dose-dependent (Fig. 6b)) was “inhibited” and the “p22phox–Rubicon interaction” value (human monocytes; normal human monocytes, LPS/ATP, 0.01, 0.1, 1 μM, dose-dependent (Fig. 6a)) was “inhibited”.
